Source: ChEMBL document CHEMBL4828735, “Discovery of N-((3S,4S)-4-(3,4-Difluorophenyl)piperidin-3-yl)-2-fluoro-4-(1-methyl-1H-pyrazol-5-yl)benzamide (Hu7691), a Potent and Selective Akt Inhibitor That Enables Decrease of Cutaneous Toxicity” (J Med Chem, 2021)
Activity calls are given as the source filed them. The rule behind the calls is not given here.

What was measured:
[1] = Toxicity in BALB/c nude mouse xenografted with human KHOS cells assessed as mortality at 12.5 to 50 mg/kg, ig administered once daily for 22 days; type: organism-based; settings: in vivo, po, 528 h, dose 12.5-50 mg/kg, time 22 day
[2] = Microsomal stability in monkey liver microsomes assessed as intrinsic clearance at 50 uM preincubated for 5 mins with NADPH followed by compound addition and measured upto 60 mins by LC-MS/MS analysis; type: ADME, Macaca mulatta, Microsome; settings: rhesus monkey, read-out: CLH
[3] = Microsomal stability in monkey liver microsomes assessed as half life at 50 uM preincubated for 5 mins with NADPH followed by compound addition and measured upto 60 mins by LC-MS/MS analysis; type: ADME, Macaca mulatta, Microsome; settings: rhesus monkey
CYP2C19 = CYP2C19 (Homo sapiens, UniProt P33261); assay: Inhibition of CYP2C19 (unknown origin) at 100 uM; type: ADME
Chain of CYP2C19 (P33261 whole entry): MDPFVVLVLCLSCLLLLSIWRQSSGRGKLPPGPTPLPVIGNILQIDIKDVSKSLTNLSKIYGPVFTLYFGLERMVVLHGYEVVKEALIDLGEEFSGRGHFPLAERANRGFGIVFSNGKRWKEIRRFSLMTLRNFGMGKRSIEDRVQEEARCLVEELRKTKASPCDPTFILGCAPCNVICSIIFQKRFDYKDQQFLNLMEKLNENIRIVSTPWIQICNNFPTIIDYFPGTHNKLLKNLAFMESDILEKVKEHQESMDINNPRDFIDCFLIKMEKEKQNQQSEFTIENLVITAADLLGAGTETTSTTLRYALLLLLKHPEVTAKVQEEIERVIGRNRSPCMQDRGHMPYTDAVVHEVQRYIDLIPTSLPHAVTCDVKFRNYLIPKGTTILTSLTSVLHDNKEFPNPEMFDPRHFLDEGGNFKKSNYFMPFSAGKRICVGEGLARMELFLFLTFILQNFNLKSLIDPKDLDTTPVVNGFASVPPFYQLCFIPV

[4] = Toxicity in mouse assessed as maximum toxicity dose; settings: in vivo
[5] = biological target: Ribosomal protein S6 kinase alpha-5 (Homo sapiens, UniProt O75582); assay: Inhibition of MSK1 (unknown origin)
Bel-7402 = assay: Antiproliferative activity against human Bel-7402 cells assessed as inhibition of cell growth incubated for 72 hrs by SRB method; type: functional, cell-based; settings: Bel-7402, 72 h
HGC-27 = assay: Antiproliferative activity against human HGC-27 cells assessed as inhibition of cell growth incubated for 72 hrs by SRB assay; type: functional, cell-based; settings: HGC-27, 72 h
[6] = Toxicity in Sprague-Dawley rat assessed as appearance of scab on back skin at 25 to 75 mg/kg administered daily for 4 weeks; type: organism-based; settings: in vivo, 672 h, dose 25-75 mg/kg
[7] = biological target: Protein kinase C eta type (Homo sapiens, UniProt P24723); assay: Inhibition of PKCeta (unknown origin)
Chain of Protein kinase C eta type (P24723 whole entry): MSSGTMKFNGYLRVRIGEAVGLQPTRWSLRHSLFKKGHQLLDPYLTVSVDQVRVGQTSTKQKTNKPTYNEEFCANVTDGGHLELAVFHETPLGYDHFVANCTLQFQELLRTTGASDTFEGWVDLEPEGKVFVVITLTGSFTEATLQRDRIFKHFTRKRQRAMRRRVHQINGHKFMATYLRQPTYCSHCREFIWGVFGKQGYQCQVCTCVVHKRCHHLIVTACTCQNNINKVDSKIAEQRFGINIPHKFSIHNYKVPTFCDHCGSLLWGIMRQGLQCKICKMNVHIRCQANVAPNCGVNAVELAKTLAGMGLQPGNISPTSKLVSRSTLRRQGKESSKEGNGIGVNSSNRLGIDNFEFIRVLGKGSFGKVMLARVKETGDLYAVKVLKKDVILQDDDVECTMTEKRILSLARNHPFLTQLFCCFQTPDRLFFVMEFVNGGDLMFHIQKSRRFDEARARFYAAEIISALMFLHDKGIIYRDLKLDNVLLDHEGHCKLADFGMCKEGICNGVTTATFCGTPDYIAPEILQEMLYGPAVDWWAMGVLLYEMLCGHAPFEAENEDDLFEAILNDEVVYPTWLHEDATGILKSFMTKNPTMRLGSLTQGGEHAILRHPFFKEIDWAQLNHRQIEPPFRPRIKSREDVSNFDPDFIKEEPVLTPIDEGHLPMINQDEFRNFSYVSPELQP

[8] = biological target: Protein kinase C theta type (Homo sapiens, UniProt Q04759); assay: Inhibition of PKCtheta (unknown origin)
Chain of Protein kinase C theta type (Q04759 whole entry): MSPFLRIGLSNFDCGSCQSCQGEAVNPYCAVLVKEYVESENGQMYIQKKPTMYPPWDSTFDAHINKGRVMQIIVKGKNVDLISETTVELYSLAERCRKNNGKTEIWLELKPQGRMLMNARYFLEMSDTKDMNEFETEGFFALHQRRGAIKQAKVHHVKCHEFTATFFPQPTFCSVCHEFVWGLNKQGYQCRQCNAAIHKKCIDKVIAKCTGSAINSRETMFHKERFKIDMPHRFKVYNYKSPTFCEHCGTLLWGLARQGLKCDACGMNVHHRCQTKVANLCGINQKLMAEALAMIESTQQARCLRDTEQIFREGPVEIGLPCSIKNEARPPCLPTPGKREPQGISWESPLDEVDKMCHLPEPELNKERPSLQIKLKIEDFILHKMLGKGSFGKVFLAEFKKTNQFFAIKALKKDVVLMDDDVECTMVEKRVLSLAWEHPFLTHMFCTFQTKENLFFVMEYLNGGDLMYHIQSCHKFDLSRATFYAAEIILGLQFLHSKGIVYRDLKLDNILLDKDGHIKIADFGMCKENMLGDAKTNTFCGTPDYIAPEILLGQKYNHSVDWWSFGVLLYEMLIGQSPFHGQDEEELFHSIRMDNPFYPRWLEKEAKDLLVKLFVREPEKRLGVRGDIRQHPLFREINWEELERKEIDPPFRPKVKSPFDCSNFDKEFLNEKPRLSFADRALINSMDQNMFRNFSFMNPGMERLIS

[9] = Toxicity in Beagle dog assessed as thymic atrophy at 100 mg/kg; type: organism-based, Canis lupus familiaris; settings: in vivo
[10] = Inhibition of PKA (unknown origin); design: species or system Homo sapiens
[11] = Antiproliferative activity against human 95-D cells assessed as inhibition of cell growth incubated for 72 hrs by SRB method; type: functional, cell-based
[12] = Toxicity in Sprague-Dawley rat assessed as effect on spleen at 25 to 75 mg/kg administered daily for 4 weeks by histopathological analysis; type: organism-based; settings: in vivo, 672 h, dose 25-75 mg/kg
786-0 [13] = assay: Antitumor activity against human 786-0 cells xenografted in ig dosed BALB/c nude mouse assessed as tumor growth inhibition administered once daily for 22 days; type: functional, organism-based; settings: dose 12.5-50 mg/kg, time 22.0 day
[14] = Toxicity in Sprague-Dawley rat assessed as effect on uterus at 25 to 75 mg/kg administered daily for 4 weeks by histopathological analysis; type: organism-based; settings: in vivo, 672 h, dose 25-75 mg/kg
[15] = Toxicity in Sprague-Dawley rat assessed as effect on stomach at 25 to 75 mg/kg administered daily for 4 weeks by histopathological analysis; type: organism-based; settings: in vivo, 672 h, dose 25-75 mg/kg
786-0 [16] = assay: Antiproliferative activity against human 786-0 cells assessed as inhibition of cell growth incubated for 72 hrs by SRB method; type: functional, cell-based; settings: 786-0, 72 h
Cytochrome P450 2C9 = Cytochrome P450 2C9 (Homo sapiens, UniProt P11712); assay: Inhibition of CYP2C9 (unknown origin); type: ADME
Chain of Cytochrome P450 2C9 (P11712 whole entry): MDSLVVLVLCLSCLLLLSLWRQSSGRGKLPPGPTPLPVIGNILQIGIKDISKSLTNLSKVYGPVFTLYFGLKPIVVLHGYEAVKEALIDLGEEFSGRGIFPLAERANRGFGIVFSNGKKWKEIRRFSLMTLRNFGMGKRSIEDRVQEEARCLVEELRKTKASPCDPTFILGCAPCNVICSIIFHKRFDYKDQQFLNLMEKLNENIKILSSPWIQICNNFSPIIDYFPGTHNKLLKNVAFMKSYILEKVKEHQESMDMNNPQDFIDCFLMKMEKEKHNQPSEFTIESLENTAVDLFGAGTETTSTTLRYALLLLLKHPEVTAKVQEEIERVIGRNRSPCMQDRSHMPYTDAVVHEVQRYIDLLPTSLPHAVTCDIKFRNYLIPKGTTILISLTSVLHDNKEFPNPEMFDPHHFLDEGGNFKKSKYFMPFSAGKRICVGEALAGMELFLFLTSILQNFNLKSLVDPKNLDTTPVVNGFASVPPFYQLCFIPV

[17] = Microsomal stability in rat liver microsomes assessed as intrinsic clearance at 50 uM preincubated for 5 mins with NADPH followed by compound addition and measured upto 60 mins by LC-MS/MS analysis; type: ADME, Microsome; settings: read-out: CLH
[18] = biological target: RAC-alpha serine/threonine-protein kinase (Homo sapiens, UniProt P31749); assay: Inhibition of N-terminal GST-tagged human AKT1 (104 to 408 residues) expressed in baculovirus infected Sf21 cells incubated for 1 hr in presence of ATP by mobility shift assay
Chain of RAC-alpha serine/threonine-protein kinase (P31749 whole entry, the tested form may be a part): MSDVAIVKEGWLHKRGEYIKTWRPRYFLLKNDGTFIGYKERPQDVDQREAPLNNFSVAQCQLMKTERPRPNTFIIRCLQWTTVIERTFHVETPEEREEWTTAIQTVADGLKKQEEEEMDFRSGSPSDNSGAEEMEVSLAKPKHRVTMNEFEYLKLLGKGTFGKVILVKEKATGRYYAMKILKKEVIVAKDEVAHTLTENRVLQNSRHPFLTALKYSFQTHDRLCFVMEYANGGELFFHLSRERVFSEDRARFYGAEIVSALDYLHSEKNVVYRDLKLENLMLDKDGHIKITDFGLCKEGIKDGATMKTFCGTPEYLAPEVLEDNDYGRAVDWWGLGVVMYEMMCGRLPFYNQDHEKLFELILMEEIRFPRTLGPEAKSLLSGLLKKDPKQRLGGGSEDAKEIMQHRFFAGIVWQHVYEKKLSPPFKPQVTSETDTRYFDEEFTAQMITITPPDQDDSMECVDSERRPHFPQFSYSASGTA

[19] = Toxicity in Sprague-Dawley rat assessed as change in cell population at 25 to 75 mg/kg administered daily for 4 weeks; type: organism-based; settings: in vivo, 672 h, dose 25-75 mg/kg
Cytochrome P450 3A5 = Cytochrome P450 3A5 (Homo sapiens, UniProt P20815); assay: Inhibition of CYP3A5 (unknown origin); type: ADME
Chain of Cytochrome P450 3A5 (P20815 whole entry): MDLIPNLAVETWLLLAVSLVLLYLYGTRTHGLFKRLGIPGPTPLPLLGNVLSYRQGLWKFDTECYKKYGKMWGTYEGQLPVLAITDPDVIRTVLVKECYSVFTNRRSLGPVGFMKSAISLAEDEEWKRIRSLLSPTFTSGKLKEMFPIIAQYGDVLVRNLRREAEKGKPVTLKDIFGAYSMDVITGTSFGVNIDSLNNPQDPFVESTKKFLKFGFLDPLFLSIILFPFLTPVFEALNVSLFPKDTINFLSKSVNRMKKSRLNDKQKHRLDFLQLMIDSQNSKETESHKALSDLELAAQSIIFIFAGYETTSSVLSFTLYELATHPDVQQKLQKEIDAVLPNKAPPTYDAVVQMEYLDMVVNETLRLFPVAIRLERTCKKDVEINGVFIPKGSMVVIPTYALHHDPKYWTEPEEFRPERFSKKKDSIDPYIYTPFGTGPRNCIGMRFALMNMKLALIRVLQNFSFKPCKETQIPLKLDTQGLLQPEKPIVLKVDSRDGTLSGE

[20] = Toxicity in mouse assessed as reduction in activity at 150 mg/kg; type: organism-based; settings: in vivo
[21] = Toxicity in mouse assessed as death at 250 mg/kg; type: organism-based; settings: in vivo
[22] = Microsomal stability in human liver microsomes assessed as intrinsic clearance at 50 uM preincubated for 5 mins with NADPH followed by compound addition and measured upto 60 mins by LC-MS/MS analysis; type: ADME, Microsome; settings: read-out: CLH
Homo sapiens = species on record: Homo sapiens; assay: Inhibition of PKA (unknown origin) at 0.5 uM
[23] = Half life in Sprague-Dawley rat at 2 mg/kg, iv measured upto 24 hrs by LC-MS/MS analysis; type: ADME, organism-based; settings: in vivo
[24] = Toxicity in Sprague-Dawley rat assessed as effect on thyroid at 25 to 75 mg/kg administered daily for 4 weeks by histopathological analysis; type: organism-based; settings: in vivo, 672 h, dose 25-75 mg/kg
[25] = Drug metabolism in po dosed Sprague-Dawley rat blood assessed as M1 metabolite formation measured upto 6 hrs by UPLC-TOF-MS/MS analysis; type: ADME, organism-based; settings: in vivo
[26] = Cmax in Sprague-Dawley rat at 2 mg/kg, iv measured upto 24 hrs by LC-MS/MS analysis; type: ADME, organism-based; design: route intravenous, dose 2 mg/kg, time <=24; settings: in vivo
KHOS/NP = assay: Antiproliferative activity against human KHOS cells assessed as inhibition of cell growth incubated for 72 hrs by SRB method; type: functional, cell-based
[27] = Drug metabolism in po dosed Sprague-Dawley rat urine assessed as M1 metabolite formation measured upto 72 hrs by UPLC-TOF-MS/MS analysis; type: ADME, organism-based; settings: in vivo
[28] = biological target: Serine/threonine-protein kinase Sgk1 (Homo sapiens, UniProt O00141); assay: Inhibition of SGK (unknown origin)
Chain of Serine/threonine-protein kinase Sgk1 (O00141 whole entry): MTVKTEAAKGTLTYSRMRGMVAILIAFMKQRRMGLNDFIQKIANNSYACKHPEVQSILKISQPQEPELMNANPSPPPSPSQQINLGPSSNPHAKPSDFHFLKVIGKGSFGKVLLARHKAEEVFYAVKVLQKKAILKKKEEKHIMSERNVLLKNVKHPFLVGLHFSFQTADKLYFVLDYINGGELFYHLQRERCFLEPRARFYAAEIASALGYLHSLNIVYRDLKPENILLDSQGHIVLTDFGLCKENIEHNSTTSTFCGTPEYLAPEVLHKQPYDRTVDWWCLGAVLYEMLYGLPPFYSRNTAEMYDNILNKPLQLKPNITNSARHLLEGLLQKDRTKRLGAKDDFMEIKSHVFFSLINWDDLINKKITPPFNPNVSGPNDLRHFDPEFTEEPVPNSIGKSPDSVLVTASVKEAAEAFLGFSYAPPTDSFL

[29] = Microsomal stability in dog liver microsomes assessed as half life at 50 uM preincubated for 5 mins with NADPH followed by compound addition and measured upto 60 mins by LC-MS/MS analysis; type: ADME, Canis lupus familiaris, Microsome
[30] = biological target: Ribosomal protein S6 kinase alpha-1 (Homo sapiens, UniProt Q15418); assay: Inhibition of RSK1 (unknown origin)
Chain of Ribosomal protein S6 kinase alpha-1 (Q15418 whole entry): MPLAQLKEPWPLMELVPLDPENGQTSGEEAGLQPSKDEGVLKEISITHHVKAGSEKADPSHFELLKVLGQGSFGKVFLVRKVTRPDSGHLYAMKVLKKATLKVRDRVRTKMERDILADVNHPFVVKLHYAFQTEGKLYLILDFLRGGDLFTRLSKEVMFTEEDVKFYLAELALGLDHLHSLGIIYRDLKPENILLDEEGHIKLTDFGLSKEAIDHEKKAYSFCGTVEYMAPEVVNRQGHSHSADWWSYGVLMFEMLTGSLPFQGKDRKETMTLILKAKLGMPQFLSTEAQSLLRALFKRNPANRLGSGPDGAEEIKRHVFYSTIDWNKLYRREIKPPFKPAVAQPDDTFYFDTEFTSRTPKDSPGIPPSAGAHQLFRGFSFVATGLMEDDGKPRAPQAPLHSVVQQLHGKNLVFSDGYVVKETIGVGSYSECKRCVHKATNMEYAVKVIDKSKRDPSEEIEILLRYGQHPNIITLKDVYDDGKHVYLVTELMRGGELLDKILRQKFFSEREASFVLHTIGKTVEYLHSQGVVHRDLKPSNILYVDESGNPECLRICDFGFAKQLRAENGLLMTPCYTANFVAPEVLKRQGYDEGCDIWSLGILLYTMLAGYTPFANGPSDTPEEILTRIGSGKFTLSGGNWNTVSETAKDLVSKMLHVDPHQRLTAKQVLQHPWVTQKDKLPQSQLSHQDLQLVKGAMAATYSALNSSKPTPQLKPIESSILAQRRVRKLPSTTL

[31] = biological target: Mitogen-activated protein kinase 9 (Homo sapiens, UniProt P45984); assay: Inhibition of JNK2 (unknown origin)
Chain of Mitogen-activated protein kinase 9 (P45984 whole entry): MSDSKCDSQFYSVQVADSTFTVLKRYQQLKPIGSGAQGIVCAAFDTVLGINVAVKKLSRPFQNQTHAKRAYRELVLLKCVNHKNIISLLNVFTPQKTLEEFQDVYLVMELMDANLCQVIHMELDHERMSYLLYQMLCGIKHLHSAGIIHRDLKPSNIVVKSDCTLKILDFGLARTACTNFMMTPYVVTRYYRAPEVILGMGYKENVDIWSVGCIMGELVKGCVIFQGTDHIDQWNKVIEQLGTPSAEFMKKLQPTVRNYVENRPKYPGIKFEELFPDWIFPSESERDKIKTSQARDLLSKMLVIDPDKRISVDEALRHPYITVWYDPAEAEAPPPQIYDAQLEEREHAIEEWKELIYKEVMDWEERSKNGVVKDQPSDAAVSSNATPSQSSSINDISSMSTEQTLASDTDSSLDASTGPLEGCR

[32] = Drug metabolism in po dosed Sprague-Dawley rat bile assessed as M4 metabolite formation measured upto 24 hrs by UPLC-TOF-MS/MS analysis; type: ADME, organism-based; settings: in vivo

Cl.Cn1nccc1-c1ccc(C(=O)N[C@@H]2CNCC[C@H]2c2ccc(F)c(F)c2)c(F)c1
Activity [1]: Non-Toxic | microsomal CLint at 50 µM [2]: 13.6 µL/min/mg | half-life at 50 µM [3]: 1.7 h | inhibition at 100 µM (CYP2C19): 65% | MTD [4]: 150 mg/kg | IC50 [5]: > 10 µM | IC50 (Bel-7402): 26.6 µM | IC50 (HGC-27): 0.68 µM | Activity [6]: Non-Toxic | IC50 [7]: > 2 µM | IC50 [8]: 0.629 µM | Activity [9]: Toxic | IC50 [10]: 0.011 µM | IC50 [11]: 1.03 µM | Activity [12]: Non-Toxic | Activity (786-0 [13]): Dose-Dependent Effect | Activity [14]: Non-Toxic | Activity [15]: Non-Toxic | IC50 (786-0 [16]): 8.6 µM | IC50 (Cytochrome P450 2C9): > 100 µM | microsomal CLint at 50 µM [17]: 20 µL/min/mg | IC50 [18]: 0.004 µM | Activity [19]: Non-Toxic | IC50 (Cytochrome P450 3A5): > 100 µM | Activity [20]: Toxic | Activity [21]: Toxic | microsomal CLint at 50 µM [22]: 1.4 µL/min/mg | inhibition (Homo sapiens): Active | half-life [23]: 6.24 h | Activity [24]: Non-Toxic | Drug metabolism [25]: Metabolite_Detected | Cmax [26]: 0.208 µg/mL | IC50 (KHOS/NP): 7.47 µM | Drug metabolism [27]: Metabolite_Detected | IC50 [28]: 1.01 µM | half-life at 50 µM [29]: 5.6 h | IC50 [30]: 0.756 µM | IC50 [31]: > 10 µM | Drug metabolism [32]: Metabolite_Detected
